# Laboratory results from patent US20240327364A1, “THERAPEUTIC TARGETING OF GPR68 TO INDUCE FERROPTOSIS” (University Of Maryland, Baltimore, priority 2023, published 2024).
# Columns and labels:
# U87 spheroids = test: GBM spheroid assay; format: cell-based, human
# Procedure: One thousand cells per well were plated in an ultra-low attachment, round-bottomed, 96-well plate, and spheroids were allowed to form for 3 days. Wells were then exposed to concentrations of vehicle, OGM2 or TMZ or a combination for 3 days. Spheroids were imaged in brightfield at 10× using z-stacks that were collapsed into z-projections in the Gen5 software using the LionheartFx (BioTek™). Automated measurements of the spheroid area were obtained using Gen5 software.
# Tumor spheroid cultures are a more physiological model of tumor growth than typical 2D cell culture. Temozolomide sensitive U87 (FIG. 20A) and Temozolomide insensitive U138 (FIG. 20B) glioblastoma cell lines were plated in low attachment round bottom 96-well plates and allowed to form tumor spheroids for 3 days (T0). At T0, spheroids were imaged using Lionheart™ (HCS) High-Content Imaging Systems (Biotek™) and then were exposed to increasing doses of either Temozolomide or OGM2. After 5 days of treatment the spheroids were imaged again (T5). The size (area) of the spheroids after 5 days of treatment was quantified, and the average size of the spheroids at TO is depicted in red.
# A GPR68-positive allosteric modulator, Ogerin, was tested. U87glioblastoma cells were plated in low attachment round bottom 96-well plates and allowed to form tumor spheroids for 3 days (TO). These spheroids were treated with Vehicle (DMSO), 10 μM/20 μM Ogerin or 10 μM/20 μM Ogremorphin-2 (OGM2). The spheroids were placed in the Lionheart™ HCS equipped with environmental control (5% CO2 at 37° C.) and imaged every 12 hours.
# Spheroids were formed over 3 days using low attachment 96-well round bottom plates and then treated with DMSO or OGM2 in either pH 8 buffered media or pH 6.2 buffered media and grown for 3 days. The size (area) of spheroids was measured in relative area units. […] This increase in growth was abrogated by OGM2.
# NEK5 = molecular target: T1, NEK5 (Homo sapiens, UniProt Q6P3R8); test: KinomeScan; format: binding; details: read-out: % Control
# T1 construct: purchased DiscoveRx
# C3aR = molecular target: T2, C3aR (Homo sapiens, UniProt Q16581); test: GPCR Profiler; format: cell-based
# T2 construct: host or cells: Chem-1 cells with promiscuous Gα15
# PFCDPK1(P. falciparum) = molecular target: T3, PFCDPK1(P. falciparum) (Plasmodium falciparum, UniProt P62344); test: KinomeScan; format: binding; details: read-out: % Control
# T3 construct: purchased DiscoveRx (Fremont, CA)
# MC2 = molecular target: T4, MC2 (Homo sapiens, UniProt Q01718); test: GPCR Profiler; format: cell-based
# T4 construct: host or cells: Chem-1 cells with promiscuous Gα15
# ADRB2 = molecular target: T5, ADRB2 (Homo sapiens, UniProt P07550); test: GPCR Profiler; format: cell-based
# T5 construct: host or cells: Chem-1 cells with promiscuous Gα15
# M1 = molecular target: T6, M1 (Homo sapiens, UniProt P11229); test: GPCR Profiler; format: cell-based
# T6 construct: host or cells: Chem-1 cells with promiscuous Gα15
# DYRK1A = molecular target: T7, DYRK1A (Homo sapiens, UniProt Q13627); test: KinomeScan; format: binding; details: read-out: % Control
# T7 construct: purchased DiscoveRx (Fremont, CA), KinomeScan service
# SNRK = molecular target: T8, SNRK (Homo sapiens, UniProt Q9NRH2); test: KinomeScan; format: binding; details: read-out: % Control
# T8 construct: purchased DiscoveRx (Fremont, CA)
# LRRK2(G2019S) = molecular target: T9, LRRK2(G2019S) (Homo sapiens, UniProt Q5S007, G2019S); test: KinomeScan; format: binding; details: read-out: % Control
# T9 construct: purchased DiscoveRx
# GPR43 = molecular target: T10, GPR43 (Homo sapiens, UniProt O15552); test: GPCR Profiler; format: cell-based
# T10 construct: host or cells: Chem-1 cells with promiscuous Gα15
# ACVR1B = molecular target: T11, ACVR1B (Homo sapiens, UniProt P36896); test: KinomeScan; format: binding; details: read-out: % Control
# T11 construct: purchased DiscoveRx
# BDKR2 = molecular target: T12, BDKR2 (Homo sapiens, UniProt P30411); test: GPCR Profiler; format: cell-based
# T12 construct: host or cells: Chem-1 cells with promiscuous Gα15
# CDK8 = molecular target: T13, CDK8 (Homo sapiens, UniProt P49336); test: KinomeScan; format: binding; details: read-out: % Control
# T13 construct: purchased DiscoveRx (KinomeScan service)
# JNK3 = molecular target: T14, JNK3 (Homo sapiens, UniProt P53779); test: KinomeScan; format: binding; details: read-out: % Control
# T14 construct: purchased DiscoveRx
# T14 sequence (P53779 whole entry): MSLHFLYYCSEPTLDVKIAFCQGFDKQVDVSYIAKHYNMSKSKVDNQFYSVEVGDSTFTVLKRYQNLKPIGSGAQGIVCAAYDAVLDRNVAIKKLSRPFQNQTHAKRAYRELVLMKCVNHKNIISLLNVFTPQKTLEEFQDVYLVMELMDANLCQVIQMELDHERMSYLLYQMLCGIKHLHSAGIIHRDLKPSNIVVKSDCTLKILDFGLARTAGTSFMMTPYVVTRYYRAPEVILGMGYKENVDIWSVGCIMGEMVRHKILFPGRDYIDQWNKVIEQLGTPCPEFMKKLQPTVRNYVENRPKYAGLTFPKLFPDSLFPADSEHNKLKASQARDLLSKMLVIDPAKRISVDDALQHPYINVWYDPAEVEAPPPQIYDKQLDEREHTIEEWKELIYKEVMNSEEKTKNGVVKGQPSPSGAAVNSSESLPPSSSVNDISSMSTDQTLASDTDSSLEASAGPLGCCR
# T12 sequence (P30411 whole entry): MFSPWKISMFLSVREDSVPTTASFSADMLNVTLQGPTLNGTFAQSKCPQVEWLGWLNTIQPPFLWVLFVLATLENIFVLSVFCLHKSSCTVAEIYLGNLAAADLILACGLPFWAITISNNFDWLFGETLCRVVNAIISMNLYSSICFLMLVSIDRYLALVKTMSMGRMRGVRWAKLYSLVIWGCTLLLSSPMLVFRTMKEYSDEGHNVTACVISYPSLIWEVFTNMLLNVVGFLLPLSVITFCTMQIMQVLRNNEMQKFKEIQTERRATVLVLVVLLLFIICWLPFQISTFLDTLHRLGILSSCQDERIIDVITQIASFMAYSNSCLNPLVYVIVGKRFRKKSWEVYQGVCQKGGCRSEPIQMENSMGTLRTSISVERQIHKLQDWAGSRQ
# T4 sequence (Q01718 whole entry): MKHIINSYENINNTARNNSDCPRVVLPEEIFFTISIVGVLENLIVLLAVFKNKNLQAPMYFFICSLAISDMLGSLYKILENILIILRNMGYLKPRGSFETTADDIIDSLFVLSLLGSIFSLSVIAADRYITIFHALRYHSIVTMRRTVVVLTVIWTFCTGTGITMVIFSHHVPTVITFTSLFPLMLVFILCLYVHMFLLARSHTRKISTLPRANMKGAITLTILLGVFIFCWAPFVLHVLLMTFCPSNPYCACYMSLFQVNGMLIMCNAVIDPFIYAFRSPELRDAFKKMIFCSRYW
# T4 sequence (Q8TCY5 whole entry partner): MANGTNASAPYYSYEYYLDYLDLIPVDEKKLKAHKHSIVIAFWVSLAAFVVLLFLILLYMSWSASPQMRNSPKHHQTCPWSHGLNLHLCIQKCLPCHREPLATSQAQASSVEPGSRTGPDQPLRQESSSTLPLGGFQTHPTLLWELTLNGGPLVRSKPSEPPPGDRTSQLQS
# T2 sequence (Q16581 whole entry, species assumed): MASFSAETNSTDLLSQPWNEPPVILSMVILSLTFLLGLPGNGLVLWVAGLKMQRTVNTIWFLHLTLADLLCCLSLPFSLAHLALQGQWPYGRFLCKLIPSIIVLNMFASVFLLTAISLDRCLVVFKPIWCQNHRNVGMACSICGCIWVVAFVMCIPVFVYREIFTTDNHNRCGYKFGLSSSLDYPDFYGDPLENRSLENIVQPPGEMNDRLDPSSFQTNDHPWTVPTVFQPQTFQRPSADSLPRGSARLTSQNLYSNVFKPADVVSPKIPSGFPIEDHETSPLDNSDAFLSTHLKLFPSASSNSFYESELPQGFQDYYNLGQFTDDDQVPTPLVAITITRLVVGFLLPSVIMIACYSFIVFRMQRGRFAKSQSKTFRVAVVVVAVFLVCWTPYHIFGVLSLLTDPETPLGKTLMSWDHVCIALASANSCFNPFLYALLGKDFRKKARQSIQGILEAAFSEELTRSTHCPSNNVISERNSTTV
# T10 sequence (O15552 whole entry, species assumed): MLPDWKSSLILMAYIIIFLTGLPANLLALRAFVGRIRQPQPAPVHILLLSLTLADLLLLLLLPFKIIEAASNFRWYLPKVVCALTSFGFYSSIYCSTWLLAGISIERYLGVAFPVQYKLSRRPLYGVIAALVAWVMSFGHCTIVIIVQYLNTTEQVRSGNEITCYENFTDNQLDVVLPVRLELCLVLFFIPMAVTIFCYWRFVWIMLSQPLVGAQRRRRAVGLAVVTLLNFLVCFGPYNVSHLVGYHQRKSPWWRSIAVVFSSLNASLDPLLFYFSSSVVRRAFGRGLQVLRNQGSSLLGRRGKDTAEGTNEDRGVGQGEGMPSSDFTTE
# T6 sequence (P11229 whole entry): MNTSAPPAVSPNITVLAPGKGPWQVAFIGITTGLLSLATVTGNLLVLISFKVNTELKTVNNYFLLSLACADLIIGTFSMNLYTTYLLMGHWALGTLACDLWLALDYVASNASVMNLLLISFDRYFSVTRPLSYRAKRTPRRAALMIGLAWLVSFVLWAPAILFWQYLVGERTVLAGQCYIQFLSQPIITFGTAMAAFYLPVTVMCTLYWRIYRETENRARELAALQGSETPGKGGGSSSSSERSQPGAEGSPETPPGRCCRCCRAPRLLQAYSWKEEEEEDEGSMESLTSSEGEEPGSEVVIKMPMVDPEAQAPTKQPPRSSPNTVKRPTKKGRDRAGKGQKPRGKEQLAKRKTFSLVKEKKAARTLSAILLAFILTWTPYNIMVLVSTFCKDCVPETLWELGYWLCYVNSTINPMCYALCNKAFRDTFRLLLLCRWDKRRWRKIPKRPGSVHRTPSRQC
# T5 sequence (P07550 whole entry, species assumed): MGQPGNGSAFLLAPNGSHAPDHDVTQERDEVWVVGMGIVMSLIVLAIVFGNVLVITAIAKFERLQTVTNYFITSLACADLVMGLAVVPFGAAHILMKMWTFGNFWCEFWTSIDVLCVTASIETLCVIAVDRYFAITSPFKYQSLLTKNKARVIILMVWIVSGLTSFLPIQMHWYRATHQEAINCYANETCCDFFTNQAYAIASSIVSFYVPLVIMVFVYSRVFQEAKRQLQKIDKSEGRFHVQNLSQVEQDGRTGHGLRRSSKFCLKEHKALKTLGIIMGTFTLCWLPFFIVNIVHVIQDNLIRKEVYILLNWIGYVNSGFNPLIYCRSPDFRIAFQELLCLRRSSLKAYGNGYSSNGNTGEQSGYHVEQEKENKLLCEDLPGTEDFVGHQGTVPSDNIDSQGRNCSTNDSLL
# T3 sequence (P62344 whole entry): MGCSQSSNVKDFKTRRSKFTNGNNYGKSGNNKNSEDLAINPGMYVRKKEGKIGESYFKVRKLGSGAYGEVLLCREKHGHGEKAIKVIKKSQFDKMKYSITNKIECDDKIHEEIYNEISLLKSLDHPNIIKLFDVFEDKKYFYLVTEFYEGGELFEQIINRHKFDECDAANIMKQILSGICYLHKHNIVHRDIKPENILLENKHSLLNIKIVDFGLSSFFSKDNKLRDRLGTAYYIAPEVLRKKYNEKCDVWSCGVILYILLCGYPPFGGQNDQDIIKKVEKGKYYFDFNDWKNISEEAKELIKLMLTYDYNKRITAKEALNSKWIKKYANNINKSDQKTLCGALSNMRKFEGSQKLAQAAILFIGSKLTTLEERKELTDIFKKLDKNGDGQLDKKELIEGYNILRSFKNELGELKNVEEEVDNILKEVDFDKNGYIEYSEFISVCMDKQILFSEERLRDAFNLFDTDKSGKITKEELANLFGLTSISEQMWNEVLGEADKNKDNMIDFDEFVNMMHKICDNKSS
# T1 sequence (Q6P3R8 whole entry): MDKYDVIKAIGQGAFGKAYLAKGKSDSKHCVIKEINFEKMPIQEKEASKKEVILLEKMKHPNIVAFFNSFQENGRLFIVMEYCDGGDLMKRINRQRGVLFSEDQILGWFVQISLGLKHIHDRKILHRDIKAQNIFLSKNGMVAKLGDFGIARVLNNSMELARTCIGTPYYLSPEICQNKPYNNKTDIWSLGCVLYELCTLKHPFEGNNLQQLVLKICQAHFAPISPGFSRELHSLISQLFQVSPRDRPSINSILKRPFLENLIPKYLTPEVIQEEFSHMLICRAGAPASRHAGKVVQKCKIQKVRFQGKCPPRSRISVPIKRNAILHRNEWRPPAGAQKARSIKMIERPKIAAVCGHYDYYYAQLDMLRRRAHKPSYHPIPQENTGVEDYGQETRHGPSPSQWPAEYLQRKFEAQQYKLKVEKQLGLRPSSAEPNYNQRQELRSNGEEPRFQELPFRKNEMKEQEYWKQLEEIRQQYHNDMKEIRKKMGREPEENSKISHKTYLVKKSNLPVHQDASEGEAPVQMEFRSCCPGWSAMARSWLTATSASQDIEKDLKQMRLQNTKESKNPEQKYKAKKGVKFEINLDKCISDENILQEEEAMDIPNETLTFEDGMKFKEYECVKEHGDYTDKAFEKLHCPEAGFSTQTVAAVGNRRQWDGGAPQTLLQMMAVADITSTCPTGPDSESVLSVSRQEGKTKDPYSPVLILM
# T11 sequence (P36896 207-497 limits assumed): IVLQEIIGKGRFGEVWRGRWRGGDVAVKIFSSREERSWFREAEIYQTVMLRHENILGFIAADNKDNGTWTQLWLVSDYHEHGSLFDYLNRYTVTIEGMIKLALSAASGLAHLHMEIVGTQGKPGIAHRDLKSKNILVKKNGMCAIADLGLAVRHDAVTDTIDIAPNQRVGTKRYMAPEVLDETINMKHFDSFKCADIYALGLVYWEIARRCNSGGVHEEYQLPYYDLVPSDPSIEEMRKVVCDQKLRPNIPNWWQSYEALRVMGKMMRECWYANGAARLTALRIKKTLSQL
compound,measurement,setting,value
CCc1ccc2c(c1)C1(NN=C(c3ccccc3)S1)C(=O)N2 (centres unmarked) [OGM2],spheroid growth rate,U87 spheroids,impaired spheroid growth rate
same,"spheroid growth, comparison with TMZ",U87 spheroids,more potent inhibitor of U87 spheroid growth than TMZ
same,increase in spheroid growth at pH 6.2 versus pH 8,U87 spheroids; 3 days,abrogated
"CCc1ccc2c(c1)C1(NN=C(c3cccc4ccccc34)S1)C(=O)N2 (centres unmarked) [OGM1, 5-ethyl-5′-naphthalen-1-ylspiro[1H-indole-3,2′-3H-1,3,4-thiadiazole]-2-one]",remaining binding at 10 µM,NEK5,95%
same,Antagonism,C3aR; 10 uM,5.4
same,Agonism,C3aR; 12.5 uM,0.2
same,remaining binding at 10 µM,PFCDPK1(P. falciparum),95%
same,Antagonism,MC2; 10 uM,3.9
same,Agonism,MC2; 12.5 uM,0.1
same,Antagonism,ADRB2; 10 uM,−9.5
same,Agonism,ADRB2; 12.5 uM,−0.1
same,Antagonism,M1; 10 uM,−3.3
same,Agonism,M1; 12.5 uM,0.8
same,remaining binding at 10 µM,DYRK1A,39%
same,remaining binding at 10 µM,SNRK,100%
same,remaining binding at 10 µM,LRRK2(G2019S),100%
same,Antagonism,GPR43; 10 uM,6.4
same,Agonism,GPR43; 12.5 uM,−0.2
same,remaining binding at 10 µM,ACVR1B,100%
same,Antagonism,BDKR2; 10 uM,3.4
same,Agonism,BDKR2; 12.5 uM,−2.4
same,remaining binding at 10 µM,CDK8,100%
same,remaining binding at 10 µM,JNK3,82%
